Experimental data as given in article PMC11845477, “Exploring the principles behind antibiotics with limited resistance” (Nature Communications, 2025).

Legend:
[1] = tested on: E. coli ATCC 25922 (SEN) and E. coli NCTC13846 (MDR); experiment: Adaptive laboratory evolution (ALE), relative MIC of evolved lines; format: cell-based, Escherichia coli
Summary of the method: (§1)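 Ten parallel populations per antibiotic–ancestor pair were evolved in MHB at 37 °C, starting near 50% growth-inhibiting drug. Every 72 h they were passaged into 0.5–2.5× increasing concentrations, keeping the highest-drug well with OD600 > 0.2.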

[2] = tested on: A. baumannii ATCC 17978 (SEN) and A. baumannii ATCC BAA-1605 (MDR); experiment: as above; format: cell-based, Acinetobacter baumannii
Summary of the method: as §1

[3] = EC-SEN (Escherichia coli ATCC 25922), evolved line 3
[4] = EC-SEN (Escherichia coli ATCC 25922), evolved line 4
[5] = EC-SEN (Escherichia coli ATCC 25922), evolved line 5
[6] = EC-SEN (Escherichia coli ATCC 25922), evolved line 7
[7] = EC-SEN (Escherichia coli ATCC 25922), evolved line 10
[8] = AB-MDR (Acinetobacter baumannii ATCC BAA 1605), evolved line 2
[9] = AB-MDR (Acinetobacter baumannii ATCC BAA 1605), evolved line 5
[10] = AB-MDR (Acinetobacter baumannii ATCC BAA 1605), evolved line 7
[11] = AB-MDR (Acinetobacter baumannii ATCC BAA 1605), evolved line 9
[12] = AB-MDR (Acinetobacter baumannii ATCC BAA 1605), evolved line 10
[13] = AB-SEN (Acinetobacter baumannii ATCC 17978), evolved line 4
[14] = AB-SEN (Acinetobacter baumannii ATCC 17978), evolved line 6
[15] = AB-SEN (Acinetobacter baumannii ATCC 17978), evolved line 8
[16] = AB-SEN (Acinetobacter baumannii ATCC 17978), evolved line 9
[17] = AB-SEN (Acinetobacter baumannii ATCC 17978), evolved line 10

CC(C)c1ccc(Cn2ccc3c4c(N)nc(NC5CC5)nc4ccc32)cc1 [SCH79797]
Relative MIC ([1]; ALE, Escherichia coli ATCC 25922 (EC-SEN), evolved line 1): 4 | Relative MIC ([1]; ALE, Escherichia coli ATCC 25922 (EC-SEN), evolved line 2): 4 | Relative MIC ([1]; ALE, Escherichia coli ATCC 25922 (EC-SEN), evolved line 3): 4 | Relative MIC ([1]; ALE, Escherichia coli ATCC 25922 (EC-SEN), evolved line 4): 4 | Relative MIC ([1]; ALE, Escherichia coli ATCC 25922 (EC-SEN), evolved line 5): 4 | Relative MIC ([1]; ALE, Escherichia coli ATCC 25922 (EC-SEN), evolved line 7): 4 | Relative MIC ([1]; ALE, Escherichia coli ATCC 25922 (EC-SEN), evolved line 8): 2 | Relative MIC ([1]; ALE, Escherichia coli ATCC 25922 (EC-SEN), evolved line 9): 2 | Relative MIC ([1]; ALE, Escherichia coli ATCC 25922 (EC-SEN), evolved line 10): 4 | MIC of evolved line ([1]; EC-SEN (E. coli ATCC 25922), evolved line 1 of the given antibiotic): 16 mg/L | Relative MIC ([1]; EC-SEN (E. coli ATCC 25922), evolved line 1 vs ancestor): 4 | MIC of evolved line ([1]; EC-SEN (E. coli ATCC 25922), evolved line 2 of the given antibiotic): 16 mg/L | Relative MIC ([1]; EC-SEN (E. coli ATCC 25922), evolved line 2 vs ancestor): 4 | MIC of evolved line ([1]; EC-SEN (E. coli ATCC 25922), evolved line 3 of the given antibiotic): 16 mg/L | Relative MIC ([1]; EC-SEN (E. coli ATCC 25922), evolved line 3 vs ancestor): 4 | MIC of evolved line ([1]; EC-SEN (E. coli ATCC 25922), evolved line 4 of the given antibiotic): 16 mg/L | Relative MIC ([1]; EC-SEN (E. coli ATCC 25922), evolved line 4 vs ancestor): 4 | MIC of evolved line ([1]; EC-SEN (E. coli ATCC 25922), evolved line 5 of the given antibiotic): 16 mg/L | Relative MIC ([1]; EC-SEN (E. coli ATCC 25922), evolved line 5 vs ancestor): 4 | MIC of evolved line ([1]; EC-SEN (E. coli ATCC 25922), evolved line 7 of the given antibiotic): 16 mg/L | Relative MIC ([1]; EC-SEN (E. coli ATCC 25922), evolved line 7 vs ancestor): 4 | MIC of evolved line ([1]; EC-SEN (E. coli ATCC 25922), evolved line 8 of the given antibiotic): 8 mg/L | Relative MIC ([1]; EC-SEN (E. coli ATCC 25922), evolved line 8 vs ancestor): 2 | MIC of evolved line ([1]; EC-SEN (E. coli ATCC 25922), evolved line 9 of the given antibiotic): 8 mg/L | Relative MIC ([1]; EC-SEN (E. coli ATCC 25922), evolved line 9 vs ancestor): 2 | MIC of evolved line ([1]; EC-SEN (E. coli ATCC 25922), evolved line 10 of the given antibiotic): 16 mg/L | Relative MIC ([1]; EC-SEN (E. coli ATCC 25922), evolved line 10 vs ancestor): 4 | Relative MIC [1, 3]: 4 | Relative MIC (log10) [1, 3]: 0.6021 log10 | Relative MIC [1, 4]: 4 | Relative MIC (log10) [1, 4]: 0.6021 log10 | Relative MIC [1, 5]: 4 | Relative MIC (log10) [1, 5]: 0.6021 log10 | Relative MIC [1, 6]: 4 | Relative MIC (log10) [1, 6]: 0.6021 log10 | Relative MIC ([1]; EC-SEN (Escherichia coli ATCC 25922), evolved line 8): 2 | Relative MIC ([1]; EC-SEN (Escherichia coli ATCC 25922), evolved line 9): 2 | Relative MIC [1, 7]: 4 | Relative MIC (log10) [1, 7]: 0.6021 log10 | Relative MIC ([1]; EC-SEN, Escherichia coli ATCC 25922, evolved line 1): 4 | Relative MIC ([1]; EC-SEN, Escherichia coli ATCC 25922, evolved line 2): 4 | Relative MIC ([1]; Escherichia coli ATCC 25922 (EC-SEN), evolved line 1): 4 | Relative MIC ([1]; Escherichia coli ATCC 25922 (EC-SEN), evolved line 2): 4 | Relative MIC ([1]; Escherichia coli ATCC 25922 (EC-SEN), evolved line 3): 4 | Relative MIC ([1]; Escherichia coli ATCC 25922 (EC-SEN), evolved line 4): 4 | Relative MIC ([1]; Escherichia coli ATCC 25922 (EC-SEN), evolved line 5): 4 | Relative MIC ([1]; Escherichia coli ATCC 25922 (EC-SEN), evolved line 7): 4 | Relative MIC ([1]; Escherichia coli ATCC 25922 (EC-SEN), evolved line 8): 2 | Relative MIC ([1]; Escherichia coli ATCC 25922 (EC-SEN), evolved line 9): 2 | Relative MIC ([1]; Escherichia coli ATCC 25922 (EC-SEN), evolved line 10): 4 | MIC of evolved line ([2]; AB-MDR (A. baumannii ATCC BAA 1605), evolved line 2 of the given antibiotic): 8 mg/L | Relative MIC ([2]; AB-MDR (A. baumannii ATCC BAA 1605), evolved line 2 vs ancestor): 2 | MIC of evolved line ([2]; AB-MDR (A. baumannii ATCC BAA 1605), evolved line 5 of the given antibiotic): 8 mg/L | Relative MIC ([2]; AB-MDR (A. baumannii ATCC BAA 1605), evolved line 5 vs ancestor): 2 | MIC of evolved line ([2]; AB-MDR (A. baumannii ATCC BAA 1605), evolved line 7 of the given antibiotic): 16 mg/L | Relative MIC ([2]; AB-MDR (A. baumannii ATCC BAA 1605), evolved line 7 vs ancestor): 4 | MIC of evolved line ([2]; AB-MDR (A. baumannii ATCC BAA 1605), evolved line 9 of the given antibiotic): 8 mg/L | Relative MIC ([2]; AB-MDR (A. baumannii ATCC BAA 1605), evolved line 9 vs ancestor): 2 | MIC of evolved line ([2]; AB-MDR (A. baumannii ATCC BAA 1605), evolved line 10 of the given antibiotic): 8 mg/L | Relative MIC ([2]; AB-MDR (A. baumannii ATCC BAA 1605), evolved line 10 vs ancestor): 2 | Relative MIC [2, 8]: 2 | Relative MIC (log10) [2, 8]: 0.301 log10 | Relative MIC [2, 9]: 2 | Relative MIC (log10) [2, 9]: 0.301 log10 | Relative MIC [2, 10]: 4 | Relative MIC (log10) [2, 10]: 0.6021 log10 | Relative MIC [2, 11]: 2 | Relative MIC (log10) [2, 11]: 0.301 log10 | Relative MIC [2, 12]: 2 | Relative MIC (log10) [2, 12]: 0.301 log10 | MIC of evolved line ([2]; AB-SEN (A. baumannii ATCC 17978), evolved line 2 of the given antibiotic): 4 mg/L | Relative MIC ([2]; AB-SEN (A. baumannii ATCC 17978), evolved line 2 vs ancestor): 1 | MIC of evolved line ([2]; AB-SEN (A. baumannii ATCC 17978), evolved line 4 of the given antibiotic): 8 mg/L | Relative MIC ([2]; AB-SEN (A. baumannii ATCC 17978), evolved line 4 vs ancestor): 2 | MIC of evolved line ([2]; AB-SEN (A. baumannii ATCC 17978), evolved line 6 of the given antibiotic): 8 mg/L | Relative MIC ([2]; AB-SEN (A. baumannii ATCC 17978), evolved line 6 vs ancestor): 2 | MIC of evolved line ([2]; AB-SEN (A. baumannii ATCC 17978), evolved line 8 of the given antibiotic): 8 mg/L | Relative MIC ([2]; AB-SEN (A. baumannii ATCC 17978), evolved line 8 vs ancestor): 2 | MIC of evolved line ([2]; AB-SEN (A. baumannii ATCC 17978), evolved line 9 of the given antibiotic): 8 mg/L | Relative MIC ([2]; AB-SEN (A. baumannii ATCC 17978), evolved line 9 vs ancestor): 2 | MIC of evolved line ([2]; AB-SEN (A. baumannii ATCC 17978), evolved line 10 of the given antibiotic): 8 mg/L | Relative MIC ([2]; AB-SEN (A. baumannii ATCC 17978), evolved line 10 vs ancestor): 2 | Relative MIC ([2]; AB-SEN (Acinetobacter baumannii ATCC 17978), evolved line 2): 1 | Relative MIC [2, 13]: 2 | Relative MIC (log10) [2, 13]: 0.301 log10 | Relative MIC [2, 14]: 2 | Relative MIC (log10) [2, 14]: 0.301 log10 | Relative MIC [2, 15]: 2 | Relative MIC (log10) [2, 15]: 0.301 log10 | Relative MIC [2, 16]: 2 | Relative MIC (log10) [2, 16]: 0.301 log10 | Relative MIC [2, 17]: 2 | Relative MIC (log10) [2, 17]: 0.301 log10 | Relative MIC ([2]; ALE, Acinetobacter baumannii ATCC 17978 (AB-SEN), evolved line 2): 1 | Relative MIC ([2]; ALE, Acinetobacter baumannii ATCC 17978 (AB-SEN), evolved line 4): 2 | Relative MIC ([2]; ALE, Acinetobacter baumannii ATCC 17978 (AB-SEN), evolved line 6): 2 | Relative MIC ([2]; ALE, Acinetobacter baumannii ATCC 17978 (AB-SEN), evolved line 8): 2 | Relative MIC ([2]; ALE, Acinetobacter baumannii ATCC 17978 (AB-SEN), evolved line 9): 2 | Relative MIC ([2]; ALE, Acinetobacter baumannii ATCC 17978 (AB-SEN), evolved line 10): 2 | Relative MIC ([2]; ALE, Acinetobacter baumannii ATCC BAA 1605 (AB-MDR), evolved line 2): 2 | Relative MIC ([2]; ALE, Acinetobacter baumannii ATCC BAA 1605 (AB-MDR), evolved line 5): 2 | Relative MIC ([2]; ALE, Acinetobacter baumannii ATCC BAA 1605 (AB-MDR), evolved line 7): 4 | Relative MIC ([2]; ALE, Acinetobacter baumannii ATCC BAA 1605 (AB-MDR), evolved line 9): 2 | Relative MIC ([2]; ALE, Acinetobacter baumannii ATCC BAA 1605 (AB-MDR), evolved line 10): 2 | Relative MIC ([2]; Acinetobacter baumannii ATCC 17978 (AB-SEN), evolved line 2): 1 | Relative MIC ([2]; Acinetobacter baumannii ATCC 17978 (AB-SEN), evolved line 4): 2 | Relative MIC ([2]; Acinetobacter baumannii ATCC 17978 (AB-SEN), evolved line 6): 2 | Relative MIC ([2]; Acinetobacter baumannii ATCC 17978 (AB-SEN), evolved line 8): 2 | Relative MIC ([2]; Acinetobacter baumannii ATCC 17978 (AB-SEN), evolved line 9): 2 | Relative MIC ([2]; Acinetobacter baumannii ATCC 17978 (AB-SEN), evolved line 10): 2 | Relative MIC ([2]; Acinetobacter baumannii ATCC BAA 1605 (AB-MDR), evolved line 2): 2 | Relative MIC ([2]; Acinetobacter baumannii ATCC BAA 1605 (AB-MDR), evolved line 5): 2 | Relative MIC ([2]; Acinetobacter baumannii ATCC BAA 1605 (AB-MDR), evolved line 7): 4 | Relative MIC ([2]; Acinetobacter baumannii ATCC BAA 1605 (AB-MDR), evolved line 9): 2 | Relative MIC ([2]; Acinetobacter baumannii ATCC BAA 1605 (AB-MDR), evolved line 10): 2
